Source: patent US20040002425A1, “Triketone derivatives and herbicides” (Idemitsu Kosan Co., Ltd., priority 1998, published 2004)

System: Transplanted paddy rice plant
Assay: Biological Test 1 (treatment on the 3rd day after transplantation): chemical injury to paddy rice
Format: in vivo
Set-up: scale not given here
Conditions: Treatment performed 3 days after transplantation
Experimental: (1) Preparation of Herbicide
Talc (57 parts by weight) and bentonite (40 parts by weight), both serving as carriers, and sodium alkylbenzenesulfate (3 parts by weight) serving as a surfactant were homogeneously ground and mixed to thereby obtain a carrier for water-dispersible powder.
Subsequently, to the water-dispersible powder (90 parts by weight), the triketone derivative (compound No. A-1) produced in Example I-1 (10 parts by weight) was added, and the resultant mixture was homogeneously ground and mixed to thereby obtain a herbicide.
(i) Biological Test 1 (Soaking in Water/Treatment on the 3rd Day After Transplantation)
A Wagner pot (1/2000 are) was filled with paddy soil, and seeds of barnyard grass were planted on the surface layer of the soil, and further, rice seedlings grown to the 2.5-leaf stage were transplanted.
Subsequently, water was poured in the pot to a height of 3 cm above the soil surface, and placed in a greenhouse where the temperature was maintained at 20-25° C., to thereby grow the plant under suitable conditions.
On the 3rd day after transplantation, the herbicide prepared in (1) above was applied to the plant in a predetermined amount. On the 30th day after treatment with the herbicide, weed-killing ratio, herbicidal effect, and extent of chemical injury to paddy rice were examined.
In Biological tests 1 and 2, herbicidal effect and extent of chemical injury were evaluated according to the below-described standards.
3) Chemical Injury to Paddy Rice
Chemical injury to paddy rice was evaluated according to the following criteria.

[1] = dose 100 g/ha, examined on the 30th day after treatment
[2] = dose 200 g/ha, examined on the 30th day after treatment

| Structure (SMILES) | Chemical injury, Transplanted paddy rice plant (dose 100 g/ha) | Chemical injury, Transplanted paddy rice plant (dose 200 g/ha) | Chemical injury, Transplanted paddy rice plant [1] | Chemical injury, Transplanted paddy rice plant [2] |
| --- | --- | --- | --- | --- |
| CCCSC1=C(C(=O)c2cc(C)c3c(c2C)/C(=N/OC)CCS3(=O)=O)C(=O)CCC1 [B-61, 4-methoxyimino-5,8-dimethyl-6-[3-(3-propyl)thio-1-oxocyclohexan-2-yl)carbonylthiochroman-1,1-1,1-dioxide] | 0 | 0 | – | – |
| CCCS(=O)(=O)C1=C(C(=O)c2cc(C)c3c(c2C)/C(=N/OC)CCS3(=O)=O)C(=O)CCC1 [B-62, 4-methoxyimino-5,8-dimethyl-6-[3-(3-propyl)sulfonyl-1-oxocyclohexan-2-yl]carbonylthiochroman-1,1-1,1-dioxide] | 0 | 0 | – | – |
| Cc1c(C(=O)C2=C(Cl)CCCC2=O)ccc2c1C(=O)C(C)(C)CS2(=O)=O [B-63] | 3 | 5 | – | – |
| Cc1c(C(=O)C2=C(Sc3ccc(Cl)cc3)CCCC2=O)ccc2c1C(=O)C(C)(C)CS2(=O)=O [B-64, 3,3,5-trimethyl-6-[3-(4-chloro)thio-1-oxocyclohexan-2-yl]carbonylthiochroman-4-one-1,1-dioxide] | 2 | 5 | – | – |
| Cc1c(C(=O)C2=C(S(=O)(=O)c3ccc(Cl)cc3)CCCC2=O)ccc2c1C(=O)C(C)(C)CS2(=O)=O [B-65] | 3 | 4 | – | – |
| Cc1cc(C(=O)C2=C(Cl)CCCC2=O)c(C)c2c1S(=O)(=O)CCC2OC(C)C (stereo not drawn) [B-66] | 0 | 4 | – | – |
| CSC1=C(C(=O)c2cc(C)c3c(c2C)C(OC(C)C)CCS3(=O)=O)C(=O)CCC1 (stereo not drawn) [B-67] | 0 | 1 | – | – |
| Cc1cc(C(=O)C2=C(Sc3ccccc3)CCCC2=O)c(C)c2c1S(=O)(=O)CCC2OC(C)C (stereo not drawn) [B-68, 4-(2-propyl)oxy-5,8-dimethyl-6-(3-phenylthio-1-oxocyclohexan-2-yl)carbonylthiochroman-1,1-dioxide] | 0 | 0 | – | – |
| Cc1cc(C(=O)C2=C(S(C)(=O)=O)CCCC2=O)c(C)c2c1S(=O)(=O)CCC2OC(C)C (stereo not drawn) [B-69] | 0 | 1 | – | – |
| Cc1cc(C(=O)C2=C(SCc3ccccc3)CCCC2=O)c(C)c2c1S(=O)(=O)CCC2OC(C)C (stereo not drawn) [B-70] | 0 | 0 | – | – |
| Cc1cc(C(=O)C2=C(S(=O)(=O)Cc3ccccc3)CCCC2=O)c(C)c2c1S(=O)(=O)CCC2OC(C)C (stereo not drawn) [B-71] | 0 | 1 | – | – |
| CO/N=C1\CCS(=O)(=O)c2ccc(C(=O)C3=C(Cl)CCCC3=O)c(C)c21 [B-72] | 0 | 0 | – | – |
| CO/N=C1\CCS(=O)(=O)c2ccc(C(=O)C3=C(SC)CCCC3=O)c(C)c21 [B-73] | 0 | 0 | – | – |
| CO/N=C1\CCS(=O)(=O)c2ccc(C(=O)C3=C(Sc4ccccc4)CCCC3=O)c(C)c21 [B-74, 4-methoxyimino-5-methyl-6-(3-phenylthio-1-oxocyclohexan-2-yl)carbonylthiochroman-1,1-dioxide] | 0 | 0 | – | – |
| CO/N=C1\CCS(=O)(=O)c2ccc(C(=O)C3=C(S(=O)(=O)c4ccccc4)CCCC3=O)c(C)c21 [B-75] | 0 | 1 | – | – |
| CO/N=C1\CCS(=O)(=O)c2ccc(C(=O)C3=C(N(C)OC)CCCC3=O)c(C)c21 [B-76, 4-methoxyimino-5-methyl-6-[3-(N-methoxymethyl)amino-1-oxocyclohexan-2-yl]carbonylthiochroman-1,1-dioxide] | 0 | 1 | – | – |
| O=C1CCCC(Cl)=C1C(=O)c1ccc2c(c1Cl)CCCS2(=O)=O [B-77] | 0 | 0 | – | – |
| O=C1CCCC(Sc2ccccc2)=C1C(=O)c1ccc2c(c1Cl)CCCS2(=O)=O [B-78] | 0 | 0 | – | – |
| CSC1=C(C(=O)c2ccc3c(c2Cl)CCCS3(=O)=O)C(=O)CCC1 [B-79] | 0 | 0 | – | – |
| CS(=O)(=O)C1=C(C(=O)c2ccc3c(c2Cl)CCCS3(=O)=O)C(=O)CCC1 [B-80] | 0 | 0 | – | – |
| O=C1CCCC(O)=C1C(=O)c1cc2c(cc1[N+](=O)[O-])OCO2 [Comparative Example I-1, reference compound] | – | – | 3 | 4 |
| O=C1CCCC(O)=C1C(=O)c1cccc2c1OCCO2 [Comparative Example I-2, reference compound] | – | – | 0 | 0 |
| Cc1cc(C(=O)C2=C(O)CCCC2=O)c(C)c2c1S(=O)(=O)CC2C (stereo not drawn) [Comparative Example I-3, reference compound] | – | – | 3 | 4 |
| Cc1cc(C(=O)C2=C(O)CCCC2=O)c(C)c2c1S(=O)(=O)C(C)C2 (stereo not drawn) [Comparative Example I-4, reference compound] | – | – | 2 | 4 |
